Assay results taken from patent publication US20090042993A1, “IDENTIFICATION OF NOVEL POST-TRANSLATIONAL PROTEIN MODIFICATIONS” (priority 2007, published 2009).

Columns and labels:
[1] = tested on: BACE1; test: Pulse-chase half-life of BACE1; assay type: cell-based, human; details: following ceramide treatment; ~16 hours without
Protocol: (§1) Confluent cells were starved for 1 hr in Met/Cys free medium, labeled with 100 μCi [^35S]-Met/Cys (Trans35S-Label, >1000 Ci/mmol; Pierce) in starvation medium/dish and chased for 8, 16, and 24 hours with DMEM supplemented with 5 mM cold Met/Cys. Cell extracts were pre-cleared with BioMag Protein A (Polysciences, Inc.). Beads were used at the concentration of 15 μl of the slurry per sample and separated with a magnetic holder. BACE1 was then immunoprecipitated with anti-BACE1 antibodies and recovered with BioMag Protein A as above. The immunoprecipitate-bead complexes were washed 3 times and boiled in sample buffer. Beads were then separated and the samples were analyzed by reducing SDS-PAGE (on a 4-12% Bis-Tris NuPAGE system) and autoradiography.
FIG. 3 illustrates how transient lysine acetylation controls both translocation along the secretory pathway and molecular stability of the nascent BACE1 protein. […] Immunoprecipitates were analyzed by SDS-PAGE and autoradiography. […] BACE1 was then immunoprecipitated as above and analyzed by reducing SDS-PAGE and autoradiography. Results are expressed as percentage of total newly-synthesized BACE1. […] BACE1 was immunoprecipitated from total cell lysates and analyzed by SDS-PAGE and autoradiography. The half-life of BACE1 from five different readings is shown in FIG. 3(C), whereas a representative radiogram is shown in FIG. 3(D). […]

[2] = tested on: BACE1; test: Pulse-chase and cell-surface biotinylation of newly-synthesized BACE1; assay type: cell-based, human; details: BACE1WT expressing cells, 1.5 hours after the pulse
Protocol: as §1
For cell-surface biotinylation, cells were labeled as above and chased for 1.5 hours. […] Proteins were eluted and recovered as above; BACE1 was then immunopurified and analyzed by reducing SDS-PAGE and autoradiography.
FIG. 3 illustrates how transient lysine acetylation controls both translocation along the secretory pathway and molecular stability of the nascent BACE1 protein. […] Immunoprecipitates were analyzed by SDS-PAGE and autoradiography. […] BACE1 was then immunoprecipitated as above and analyzed by reducing SDS-PAGE and autoradiography. Results are expressed as percentage of total newly-synthesized BACE1. […]

**Q.** `CCCCCCCCCCCCC/C=C/[C@@H](O)[C@H](CO)NC(=O)CCCCC` [ceramide, C6-ceramide] was tested. Which “half-life of native BACE1” value [1] did it give?
**A.** The value was about 24 h.

**Q.** What about the “translocation of newly-synthesized BACE1 to the cell surface” value [2] of the same compound?
**A.** The value was “increasing the translocation of newly-synthesized BACE1 to the cell surface to levels almost similar to BACE1Gln”.
